{"source": "patent US5750521A", "about": "“Mercaptoacetylamide disulfide derivatives useful as inhibitors of enkephalinase and ACE” (Hoechst Marion Roussel Inc., priority 1996, dated 1998)", "target": "T1, ACE, rat kidney preparations (Rattus norvegicus, UniProt P47820)", "T1 construct": "compound- or vehicle-dosed rat kidney preparations; from tissue; host or cells: kidney of male Sprague-Dawley rats", "T1 sequence (P47820 36-1313)": "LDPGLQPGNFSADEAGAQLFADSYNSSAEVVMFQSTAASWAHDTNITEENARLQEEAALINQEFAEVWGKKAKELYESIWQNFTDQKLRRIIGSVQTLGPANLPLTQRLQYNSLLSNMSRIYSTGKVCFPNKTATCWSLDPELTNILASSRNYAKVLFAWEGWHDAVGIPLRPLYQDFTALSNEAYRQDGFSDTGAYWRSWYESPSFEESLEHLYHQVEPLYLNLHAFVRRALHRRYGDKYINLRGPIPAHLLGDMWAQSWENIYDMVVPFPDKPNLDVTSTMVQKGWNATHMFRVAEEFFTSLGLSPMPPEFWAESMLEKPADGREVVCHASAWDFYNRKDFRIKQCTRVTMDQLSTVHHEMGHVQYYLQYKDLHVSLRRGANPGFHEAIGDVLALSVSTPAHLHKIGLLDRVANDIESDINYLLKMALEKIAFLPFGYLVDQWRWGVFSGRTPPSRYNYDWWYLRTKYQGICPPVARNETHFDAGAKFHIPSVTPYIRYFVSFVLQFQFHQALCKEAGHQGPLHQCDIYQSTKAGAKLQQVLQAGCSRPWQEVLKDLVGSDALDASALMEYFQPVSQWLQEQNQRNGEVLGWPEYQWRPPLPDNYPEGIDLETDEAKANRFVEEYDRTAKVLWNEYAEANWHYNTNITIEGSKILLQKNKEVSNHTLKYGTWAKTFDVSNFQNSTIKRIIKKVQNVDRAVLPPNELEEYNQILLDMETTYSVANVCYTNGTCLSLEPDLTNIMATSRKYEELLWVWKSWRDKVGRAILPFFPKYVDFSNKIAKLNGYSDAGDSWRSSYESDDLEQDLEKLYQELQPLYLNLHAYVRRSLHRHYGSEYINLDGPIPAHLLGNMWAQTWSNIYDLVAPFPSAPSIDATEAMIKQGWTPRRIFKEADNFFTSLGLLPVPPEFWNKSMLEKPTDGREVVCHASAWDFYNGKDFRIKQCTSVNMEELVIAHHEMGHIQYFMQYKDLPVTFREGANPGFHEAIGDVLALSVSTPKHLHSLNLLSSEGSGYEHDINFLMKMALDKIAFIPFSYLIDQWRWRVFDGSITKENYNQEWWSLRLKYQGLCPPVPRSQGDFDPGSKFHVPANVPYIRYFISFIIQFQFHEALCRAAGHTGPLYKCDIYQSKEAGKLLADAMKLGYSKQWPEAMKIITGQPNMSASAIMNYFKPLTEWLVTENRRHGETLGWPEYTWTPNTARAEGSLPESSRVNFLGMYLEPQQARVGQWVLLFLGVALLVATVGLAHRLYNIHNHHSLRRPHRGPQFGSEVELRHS", "assay": "radiometric ACE assay with tritiated hippuryl-glycyl-glycine", "assay_type": "biochemical", "conditions": "1 μM enalaprilat; compound- or vehicle-dosed rat kidney preparations"}
{"compound": "C[C@H](N[C@@H](CCc1ccccc1)C(=O)O)C(=O)N1CCC[C@H]1C(=O)O", "note": "[enalaprilat]", "values": [{"measurement": "inhibition of radioactive product formation", "value": "Complete inhibition"}]}
